Results from patent US9399649B2, “Compounds for treating spinal muscular atrophy” (PTC Therapeutics Inc., priority 2012, dated 2016).

Tests used:
Smn protein = Smn protein assay in cultured cells (SMN HTRF); assay type: cell-based, human; conditions: SMA patient fibroblast cells (GM03813), 48 hours; for EC1.5x for Smn protein expression: 7-point concentration curve, concentration producing 1.5 times Smn protein vs DMSO vehicle; for maximum fold (Fold) increase of Smn protein: 7-point concentration data, relative to vehicle control
Method in brief: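 Smn protein measured by HTRF (anti-SMN d2/kryptate) in lysates of SMA patient fibroblasts after 48 h compound treatment, 7-point 3.16-fold dilutions, triplicates. The 665/620 nm ratio is blank-corrected to ΔF, then divided by the vehicle ΔF to give fold increase.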

[1] = test system: full length SMN2 minigene mRNA containing SMN2 exon 7; assay: SMN2 minigene mRNA splicing RT-qPCR assay in cultured cells; assay type: cell-based, human; conditions: Homo sapiens, HEK293-H; HEK293H cells stably transfected with SMN2-A minigene, 24 hours, 7-point concentration curve; concentration giving 1.5-fold full length SMN2 mRNA vs vehicle; read-out: EC1.5x for production of full length SMN2 mRNA
Method in brief: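 Read-out is minigene FL mRNA (exon 7 included) relative to vehicle, from efficiency-corrected ΔΔCt with GAPDH normalisation. Primers and probe span exon 7, exon 8 and luciferase, so endogenous SMN is not detected. Stable SMN2-A minigene HEK293H cells, 24 h compound exposure at 37 °C, 7-point curve in duplicate.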

Compound	EC1.5x for Smn protein expression (Smn protein)	maximum fold (Fold) increase of Smn protein (Smn protein)	EC (1.5-fold) [1]	melting point
CCc1nc(C)cn2cc(-c3cc4ccc(N5CCN[C@H](C)C5)cc4c(=O)o3)nc12 [Cpd 153, 3-(8-ethyl-6-methylimidazo[1,2-a]pyrazin-2-yl)-7-[(3R)-3-methylpiperazin-1-yl]-1H-isochromen-1-one]	**** (an EC1.5×≦0.3 nM is indicated by four stars (****))	***** (a fold increase >1.65 is indicated by five stars (*****))	≤ 0.1 µM	208 to 213 °C
C[C@H]1CN(c2ccc3cc(-c4ccc(O)c(O)c4)oc(=O)c3c2)CCN1 [Cpd 41, 3-(3,4-dihydroxyphenyl)-7-[(3S)-3-methylpiperazin-1-yl]-1H-isochromen-1-one]		*** (a fold increase between >1.35 and ≦1.5 is indicated by three stars (***))	0.3 to 1 µM	220 to 222 °C
CCN1CC=C(c2ccc3cc(-c4cn5cc(C)nc(C)c5n4)oc(=O)c3c2)CC1 [Cpd 90, 3-(6,8-dimethylimidazo[1,2-a]pyrazin-2-yl)-7-(1-ethyl-1,2,3,6-tetrahydropyridin-4-yl)-1H-isochromen-1-one]	**** (an EC1.5×≦0.3 nM is indicated by four stars (****))	***** (a fold increase >1.65 is indicated by five stars (*****))	≤ 0.1 µM	227 to 229 °C
Cc1nc2ccc(-c3cc4ccc(N5CCN(C(C)C)CC5)cc4c(=O)o3)cc2s1 [Cpd 105, 3-(2-methyl-1,3-benzothiazol-6-yl)-7-[4-(propan-2-yl)piperazin-1-yl]-1H-isochromen-1-one]		** (a fold increase between >1.2 and ≦1.35 is indicated by two stars (**))	0.1 to 0.3 µM	222 to 228 °C
Cc1cn2cc(-c3cc4ccc(N5C[C@@H](C)N[C@@H](C)C5)cc4c(=O)o3)nc2c(C)n1 [Cpd 64, 3-(6,8-dimethylimidazo[1,2-a]pyrazin-2-yl)-7-[(3R,5S)-3,5-dimethylpiperazin-1-yl]-1H-isochromen-1-one]	**** (an EC1.5×≦0.3 nM is indicated by four stars (****))	***** (a fold increase >1.65 is indicated by five stars (*****))	≤ 0.1 µM	244 to 246 °C
Cc1cn2cc(-c3cc4ccc(C5=CCN(C6COC6)CC5)cc4c(=O)o3)nc2c(C)n1 [Cpd 98, 3-(6,8-dimethylimidazo[1,2-a]pyrazin-2-yl)-7-[1-(oxetan-3-yl)-1,2,3,6-tetrahydropyridin-4-yl]-1H-isochromen-1-one]	*** (an EC1.5× between >0.3 nM and ≦1 nM is indicated by three stars (***))	***** (a fold increase >1.65 is indicated by five stars (*****))	≤ 0.1 µM	253 to 255 °C
C[C@H]1CN(c2ccc3cc(-c4cn5ccsc5n4)oc(=O)c3c2)CCN1 [Cpd 55, 3-(imidazo[2,1-b][1,3]thiazol-6-yl)-7-[(3S)-3-methylpiperazin-1-yl]-1H-isochromen-1-one]		** (a fold increase between >1.2 and ≦1.35 is indicated by two stars (**))	0.1 to 0.3 µM	340 to 342 °C
Cc1cn2cc(-c3cc4ccc(C5CCN(C)CC5)cc4c(=O)o3)nc2c(C)n1 [Cpd 114, 3-(6,8-dimethylimidazo[1,2-a]pyrazin-2-yl)-7-(1-methylpiperidin-4-yl)-1H-isochromen-1-one]	**** (an EC1.5×≦0.3 nM is indicated by four stars (****))	***** (a fold increase >1.65 is indicated by five stars (*****))	≤ 0.1 µM	248 to 250 °C
